Source: PubChem BioAssay (NCI)
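Protocol summary: plate cells (96-well), add compound at 5 concentrations, incubate 48 h, interpolate endpoints linearly. TGI marks complete inhibition of growth.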

Tests used:
Assay in all cases: NCI-60 cell line screen, 48 h
[1] = test system: HS 578T breast
[2] = test system: M14 melanoma
[3] = test system: HCT-116 colon
[4] = test system: HOP-62 NSCLC
[5] = test system: SF-295 CNS
[6] = test system: MDA-MB-231 breast
[7] = test system: UO-31 renal
[8] = test system: K-562 leukemia
[9] = test system: COLO 205 colon
[10] = test system: T-47D breast
[11] = test system: HCC-2998 colon
[12] = test system: SK-OV-3 ovarian
[13] = test system: OVCAR-5 ovarian
[14] = test system: DU-145 prostate
[15] = test system: RXF 393 renal
[16] = test system: HCT-15 colon
[17] = test system: OVCAR-8 ovarian
[18] = test system: SK-MEL-5 melanoma

Row | SMILES | TGI [1] | TGI [2] | TGI [3] | TGI [4] | TGI [5] | TGI [6] | TGI [7] | TGI [8] | TGI [9] | TGI [10] | TGI [11] | TGI [12] | TGI [13] | TGI [14] | TGI [15] | TGI [16] | TGI [17] | TGI [18]
1 | OCC1OC(NC(=S)NCSCCC(F)(F)C(F)(F)C(F)(F)C(F)(F)C(F)(F)C(F)(F)F)C(O)C(O)C1O (stereo not drawn) | > 100 µM | 62.1 µM | > 100 µM | > 100 µM | 60.5 µM | > 100 µM | > 100 µM | 56.4 µM | > 100 µM | > 100 µM | > 100 µM | > 100 µM | > 100 µM | > 100 µM | > 100 µM | > 100 µM | – | –
2 | NC(=S)NS(=O)(=O)c1ccc(F)cc1 | > 100 µM | > 100 µM | > 100 µM | > 100 µM | > 100 µM | > 100 µM | – | > 100 µM | > 100 µM | > 100 µM | > 100 µM | > 100 µM | > 100 µM | > 100 µM | > 100 µM | > 100 µM | > 100 µM | > 100 µM
3 | COc1ccc(N=C/C=C/C(=C/COC(C)=O)OC(C)=O)cc1 | > 100 µM | > 100 µM | 28.7 µM | > 100 µM | > 100 µM | 65.3 µM | – | 19.2 µM | 73.5 µM | > 100 µM | > 100 µM | > 100 µM | > 100 µM | > 100 µM | 57.4 µM | > 100 µM | > 100 µM | 76.6 µM
4 | C/C(O)=C/c1nc2sc(C)c(C)c2c(=O)s1 | 74 µM | > 100 µM | > 100 µM | > 100 µM | > 100 µM | > 100 µM | > 100 µM | > 100 µM | > 100 µM | > 100 µM | – | > 100 µM | > 100 µM | > 100 µM | > 100 µM | > 100 µM | > 100 µM | > 100 µM
5 | COc1ccc(C(c2ccccc2)N2C(=O)CCC2C(=O)O)cc1OC (stereo not drawn) | > 100 µM | > 100 µM | > 100 µM | > 100 µM | > 100 µM | > 100 µM | > 100 µM | > 100 µM | > 100 µM | > 100 µM | > 100 µM | > 100 µM | > 100 µM | > 100 µM | – | > 100 µM | > 100 µM | > 100 µM
6 | CC1(C)O[C@@H]([C@@H](O)[C@H](O)C2SCCCS2)[C@@H](CO)O1 | > 100 µM | > 100 µM | > 100 µM | > 100 µM | > 100 µM | > 100 µM | > 100 µM | > 100 µM | > 100 µM | > 100 µM | – | > 100 µM | > 100 µM | > 100 µM | > 100 µM | > 100 µM | > 100 µM | > 100 µM
7 | COc1ccc2c(c1)CC[C@@H]1C2CC[C@]2(C)C(=O)N(C)C(=O)CC12 (stereo partly drawn) | > 100 µM | > 100 µM | > 100 µM | > 100 µM | > 100 µM | > 100 µM | > 100 µM | > 100 µM | > 100 µM | > 100 µM | > 100 µM | > 100 µM | > 100 µM | > 100 µM | > 100 µM | – | > 100 µM | > 100 µM
8 | CSc1ccc(C=C2N=C(c3ccccc3)N(c3cc(C(=O)c4ccccc4)ccc3N3C(=O)/C(=C/c4ccc(SC)cc4)N=C3c3ccccc3)C2=O)cc1 | > 100 µM | > 100 µM | > 100 µM | > 100 µM | > 100 µM | > 100 µM | > 100 µM | > 100 µM | > 100 µM | > 100 µM | > 100 µM | > 100 µM | > 100 µM | > 100 µM | – | > 100 µM | > 100 µM | > 100 µM
9 | COC(=O)/C=C(\S/C(=C(/c1ccccc1)n1cc(C(=O)OC)c(C(=O)OC)n1)c1ccccc1)C(=O)OC | 96.3 µM | 29.8 µM | 37.1 µM | 31 µM | > 100 µM | 44.6 µM | 5.25 µM | 31.8 µM | 4.09 µM | 14.1 µM | – | > 100 µM | 32.7 µM | 29.1 µM | 31.4 µM | 29 µM | 3.88 µM | 44.5 µM
10 | COC(=O)[C@@H](COC(=O)/C=C/c1ccc(OC(C)=O)c(OC(C)=O)c1)NC(=O)/C=C/c1ccc(OC(C)=O)c(OC(C)=O)c1 | 94.6 µM | 73.8 µM | 39.5 µM | 75.5 µM | – | 82.4 µM | – | > 100 µM | 35.3 µM | 34.9 µM | 76.4 µM | > 100 µM | > 100 µM | 60.7 µM | > 100 µM | 91.4 µM | > 100 µM | 30 µM
11 | Cc1c(/C=N\NC(=S)N(C)CCN(C)C(=S)N/N=C\c2c(C)n(C)n(-c3ccccc3)c2=O)c(=O)n(-c2ccccc2)n1C | > 100 µM | > 100 µM | > 100 µM | > 100 µM | > 100 µM | > 100 µM | > 100 µM | – | > 100 µM | > 100 µM | > 100 µM | > 100 µM | > 100 µM | > 100 µM | > 100 µM | > 100 µM | – | > 100 µM
12 | O=C1c2cc([N+](=O)[O-])cnc2S(=O)(=O)N1c1ccc(Oc2ccccc2)cc1 | > 100 µM | > 100 µM | > 100 µM | > 100 µM | > 100 µM | > 100 µM | > 100 µM | > 100 µM | > 100 µM | > 100 µM | > 100 µM | > 100 µM | > 100 µM | > 100 µM | > 100 µM | > 100 µM | > 100 µM | –
13 | COC(=O)C(NC(=O)C12CCC(C)(C(=O)O1)C2(C)C)c1cc(C(C)(C)C)c(O)c(C(C)(C)C)c1 (stereo not drawn) | > 100 µM | > 100 µM | > 100 µM | > 100 µM | > 100 µM | > 100 µM | > 100 µM | > 100 µM | > 100 µM | > 100 µM | – | > 100 µM | > 100 µM | > 100 µM | > 100 µM | > 100 µM | > 100 µM | > 100 µM
